Laboratory results reported in patent US20100227921A1, “AMINO ACID AND PEPTIDE CARBAMATE PRODRUGS OF […] USES THEREOF” (SHIRE LLC, priority 2009, published 2010).

Key:
[1] = cited from earlier work
[2] = Stability of tapentadol valine carbamate in simulated gastric and intestinal fluids, water and pH 10 buffer; format: physicochemical

Compound	clearance (printed C1) ([1]; Terlinden et al. (2007)) [mL/min]	plasma half-life ([1]; humans) [h]	Simulated gastric fluid (pH 1.1): % remaining after 2 h/37° C. ([2]; USP simulated gastric fluid pH 1.1, 2 h, 37° C., HPLC) [%]	Simulated intestinal fluid (pH 6.8): % remaining after 2 h/37° C. ([2]; USP simulated intestinal fluid pH 6.8, 2 h, 37° C., HPLC) [%]	Distilled water (pH 5.9): % remaining after 2 h/20° C. ([2]; distilled water pH 5.9, 2 h, 20° C.) [%]	pH 10.0 buffer: % remaining after 2 h/20° C. ([2]; pH 10.0 buffer, 2 h, 20° C.) [%]	stability under the conditions existing in the GI tract ([2]; summary in words of Table 2)
CC[C@@H](c1cccc(O)c1)[C@@H](C)CN(C)C (racemic) [Tapentadol, (−)-(1R,2R)-3-(3-dimethyl-amino-1-ethyl-2-methyl-propyl)-phenol]	1468 ± 122	4.5					
CC[C@H](c1cccc(OC(=O)N[C@H](C(=O)O)C(C)C)c1)[C@H](C)CN(C)C (racemic) [Tapentadol valine carbamate, 2-[3-(3-Dimethylamino-1-ethyl-2-methyl-propyl)-phenoxycarbonylamino]-3-methyl-butyric acid]			100	100	100	82	stable
